What was measured:
[1] = Chemical stability of the compound in pH 7.4 PBS buffer assessed as compound remaining measured after 2 hrs by HPLC analysis; assay type: physicochemical; settings: read-out: Stabilty
[2] = Chemical stability of the compound in pH 1.2 simulated gastric fluid buffer assessed as compound remaining measured after 2 hrs by HPLC analysis; assay type: physicochemical
[3] = Chemical stability of the compound in pH 6.8 simulated intestinal fluid assessed as compound remaining measured after 2 hrs by HPLC analysis; assay type: physicochemical
[4] = Stability of the compound in human plasma assessed as compound remaining measured within 120 mins at 37 degC by HPLC analysis; assay type: ADME, cell-free; settings: read-out: Stabilty
[5] = Prodrug conversion in human plasma assessed as release of active metabolite (R)-(6-chloro-4-(5-cyclopropyl-1H-pyrazol-3-ylamino)quinazolin-2-yl)(3-methylpiperazin-1-yl)methanone hydrochloride measured within 120 mins at 37 degC by HPLC analysis; assay type: ADME, cell-free; settings: 2 h
[6] = Stability of the compound in rat liver S9 fraction assessed as compound remaining measured after 60 mins at 37 degC by LC-MS/MS analysis; assay type: ADME, subcellular; settings: read-out: Stabilty
[7] = Initial plasma concentration in Wistar rat assessed as (R)-(6-chloro-4-(5-cyclopropyl-1H-pyrazol-3-ylamino)quinazolin-2-yl)(3-methylpiperazin-1-yl)methanone hydrochloride at 2.5 mg/kg, iv measured upto 24 hrs by LC/MS/MS analysis; assay type: ADME, organism-based; settings: in vivo
[8] = AUC in Wistar rat assessed as (R)-(6-chloro-4-(5-cyclopropyl-1H-pyrazol-3-ylamino)quinazolin-2-yl)(3-methylpiperazin-1-yl)methanone hydrochloride at 13.5 mg/kg, po measured upto 24 hrs by LC/MS/MS analysis; assay type: ADME, organism-based; set-up: route oral, dose 13.5 mg/kg, time <=24; settings: in vivo
[9] = AUC (0 to infinity) in Wistar rat assessed as (R)-(6-chloro-4-(5-cyclopropyl-1H-pyrazol-3-ylamino)quinazolin-2-yl)(3-methylpiperazin-1-yl)methanone hydrochloride at 13.5 mg/kg, po measured upto 24 hrs by LC/MS/MS analysis; assay type: ADME, organism-based; set-up: route oral, dose 13.5 mg/kg, time <=24; settings: in vivo
[10] = Half life in Wistar rat assessed as (R)-(6-chloro-4-(5-cyclopropyl-1H-pyrazol-3-ylamino)quinazolin-2-yl)(3-methylpiperazin-1-yl)methanone hydrochloride at 13.5 mg/kg, po measured upto 24 hrs by LC/MS/MS analysis; assay type: ADME, organism-based; settings: in vivo
[11] = Tmax in Wistar rat assessed as (R)-(6-chloro-4-(5-cyclopropyl-1H-pyrazol-3-ylamino)quinazolin-2-yl)(3-methylpiperazin-1-yl)methanone hydrochloride at 13.5 mg/kg, po measured upto 24 hrs by LC/MS/MS analysis; assay type: ADME, organism-based; settings: in vivo
[12] = Cmax in Wistar rat assessed as (R)-(6-chloro-4-(5-cyclopropyl-1H-pyrazol-3-ylamino)quinazolin-2-yl)(3-methylpiperazin-1-yl)methanone hydrochloride at 13.5 mg/kg, po measured upto 24 hrs by LC/MS/MS analysis; assay type: ADME, organism-based; set-up: route oral, dose 13.5 mg/kg, time <=24; settings: in vivo
[13] = Oral bioavailability in Wistar rat assessed as (R)-(6-chloro-4-(5-cyclopropyl-1H-pyrazol-3-ylamino)quinazolin-2-yl)(3-methylpiperazin-1-yl)methanone hydrochloride at 13.5 mg/kg measured upto 24 hrs by LC/MS/MS analysis; assay type: ADME, organism-based; settings: in vivo
[14] = Volume of distribution in Wistar rat assessed as (R)-(6-chloro-4-(5-cyclopropyl-1H-pyrazol-3-ylamino)quinazolin-2-yl)(3-methylpiperazin-1-yl)methanone hydrochloride at 2.5 mg/kg, iv measured upto 24 hrs by LC/MS/MS analysis; assay type: ADME, organism-based; settings: in vivo
[15] = Half life in Wistar rat assessed as (R)-(6-chloro-4-(5-cyclopropyl-1H-pyrazol-3-ylamino)quinazolin-2-yl)(3-methylpiperazin-1-yl)methanone hydrochloride at 2.5 mg/kg, iv measured upto 24 hrs by LC/MS/MS analysis; assay type: ADME, organism-based; settings: in vivo
[16] = AUC (0 to infinity) in Wistar rat assessed as (R)-(6-chloro-4-(5-cyclopropyl-1H-pyrazol-3-ylamino)quinazolin-2-yl)(3-methylpiperazin-1-yl)methanone hydrochloride at 2.5 mg/kg, iv measured upto 24 hrs by LC/MS/MS analysis; assay type: ADME, organism-based; set-up: route intravenous, dose 2.5 mg/kg, time <=24; settings: in vivo
[17] = AUC in Wistar rat assessed as (R)-(6-chloro-4-(5-cyclopropyl-1H-pyrazol-3-ylamino)quinazolin-2-yl)(3-methylpiperazin-1-yl)methanone hydrochloride at 2.5 mg/kg, iv measured upto 24 hrs by LC/MS/MS analysis; assay type: ADME, organism-based; set-up: route intravenous, dose 2.5 mg/kg, time <=24; settings: in vivo
HCT-116 [18] = experiment: Antitumor activity against human HCT-116 cells xenografted in BABL/c nude mouse assessed as reduction in tumor weight at 25 mg/kg, po qd measured after 21 days; assay type: functional; settings: HCT-116, po, 504 h, time 21 day
HCT-116 [19] = experiment: Antitumor activity against human HCT-116 cells xenografted in BABL/c nude mouse assessed as reduction in tumor weight at 50 mg/kg, po qd measured after 21 days; assay type: functional; settings: HCT-116, po, 504 h, time 21 day
B16-F10 [20] = experiment: Antitumor activity against mouse B16F10 cells xenografted in BABL/c nude mouse assessed as reduction in tumor volume at 25 mg/kg, po qd measured after 21 days; assay type: functional; settings: 504 h, time 21 day
B16-F10 [21] = experiment: Antitumor activity against mouse B16F10 cells xenografted in BABL/c nude mouse assessed as reduction in tumor volume at 50 mg/kg, po qd measured after 21 days; assay type: functional; settings: 504 h, time 21 day
[22] = Toxicity in […] nude mouse harboring human HCT-116 cells assessed as body weight loss at 25 to 50 mg/kg, po qd measured after 21 days relative to control; assay type: organism-based; settings: in vivo, 504 h, dose 25-50 mg/kg, time 21 day
[23] = Toxicity in […] nude mouse harboring mouse B16F10 cells assessed as body weight loss at 25 to 50 mg/kg, po qd measured after 21 days relative to control; assay type: organism-based; settings: in vivo, 504 h, dose 25-50 mg/kg, time 21 day

Compound CC(C)C(=O)OCOC(=O)N1CCN(C(=O)c2nc(Nc3cc(C4CC4)[nH]n3)c3cc(Cl)ccc3n2)C[C@H]1C has a remaining at 2 h [1] of 93.5%, a Stability [2] of 90% and a Stability [3] of 46%. For the same compound, the remaining at 2 h [4] was 6.1%, the Drug metabolism [5] was 89.9% and the remaining at 1 h [6] was 14%. It also gave a C0 [7] of 4130 ng/mL, an AUC [8] of 129.7 ng·h/mL and an AUC [9] of 470.8 ng·h/mL. For the same compound, the t1/2 [10] was 20.1 h, the Tmax [11] was 4.98 min and the Cmax [12] was 31.5 ng/mL. The F [13] was 7.55%, the Vd [14] was 21.6 L/kg and the t1/2 [15] was 7.1 h. For the same compound, the AUC [16] was 1173.5 ng·h/mL, the AUC [17] was 1124.8 ng·h/mL and the inhibition in vivo at 25 mg/kg (HCT-116 [18]) was 54%. It also gave an inhibition in vivo at 50 mg/kg (HCT-116 [19]) of 65%, an inhibition in vivo at 25 mg/kg (B16-F10 [20]) of 51% and an inhibition in vivo at 50 mg/kg (B16-F10 [21]) of 63%. For the same compound, the Activity [22] was “Non-Toxic” and the Activity [23] was “Non-Toxic”.
